Data reported in patent publication US20230416203A1, “POTENT AND SELECTIVE INHIBITORS OF THE CALCIUM-ACTIVATED POTASSIUM CHANNEL, KCA3.1, FOR USE AS PLATFORM THERAPEUTICS” (priority 2020, published 2023).
In brackets after ≈: the same amount, converted by molar mass.

Assay: Solubility test (PBS, HPLC-UV)
Type: physicochemical
Conditions: kinetic from dmso stock
Method: Calibration standards at 1, 5, 10, 50, 100, 200 and 300 μM were prepared in DMSO from a 20 mM stock. […] The plate was covered and shook at 150 rotations per min for 90 min. At the end of 90 min, samples were filtered using MultiScreen HTS vacuum Manifold assembly and the filtrate was collected onto the acceptor plate. An aliquot (150 μL) of the filtrate from the above 96-well acceptor plate was transferred into HPLC vials and analyzed by HPLC-UV. Verapamil, ketoconazole and reserpine were used as high, medium and low soluble reference standards respectively.

## COC(=O)C1=CNC=C(C(=O)OC)C1c1ccc(F)c(C(F)(F)F)c1 [Compound 103, Dimethyl 4-(4-fluoro-3-(trifluoromethyl)phenyl)-1,4-dihydropyridine-3,5-dicarboxylate]
pH 1.5, aqueous buffer, PBS pH 1.5
  solubility at 90 min: 54.6 µM (≈ 19.6 µg/mL)
pH 5, aqueous buffer, PBS pH 5.0
  solubility at 90 min: 58.1 µM (≈ 20.9 µg/mL)
pH 7.4, aqueous buffer, PBS pH 7.4
  solubility at 90 min: ≤ 87.4 µM
